Assays:
[1] = triterpenic acid content of basic aqueous solution (trisodium phosphate extraction, Example 1); assay type: physicochemical; details: water with trisodium phosphate, extracted at 120° C. and >2 bar, cooled to room temperature, filtered through 0.22 μm filter
Method: Dried annual shoots of mistletoe were extracted with n-heptane at 120° C. and >2 bar pressure. The precipitate obtained upon cooling of the extraction agent was composed of more than 60% oleanolic acid and more than 3% betulinic acid. The triterpenic acid-rich powder thus obtained was extracted with water in the presence of trisodium phosphate at 120° C. and >2 bar pressure to produce a supersaturated basic solution.
The basic triterpenoid-rich solution, cooled to room temperature and filtered through a 0.22 μm filter, contained more than 80 μg/mL oleanolic acid and more than 8 μg/mL betulinic acid. The basic solution thus prepared was then adjusted to pH 7.4 using an aqueous phosphoric acid solution, in the presence of 1.6 μg/mL polysaccharides which had been obtained from mistletoe berries. The extent of dilution and the solvent quantities were selected in such a way that the salt concentration of the neutralized triterpenic acid-rich solution was between 5 and 140 mM.

[2] = triterpenic acid content of basic aqueous solution with cyclodextrins (Example 4); assay type: physicochemical; details: water with trisodium phosphate (10 mM) and 2 mg/mL cyclodextrins, 120° C. and >2 bar
Method: The triterpenoid-rich powder described in Example 1 was extracted with water in the presence of trisodium phosphate (10 mM) and 2 mg/mL cyclodextrins at 120° C. and >2 bar.
The basic triterpenic acid-rich solution contained more than 100 μg/mL oleanolic acid and more than 8 μg/mL betulinic acid. The basic solution thus prepared was then adjusted to pH 7.4 using an aqueous phosphoric acid solution. The extent of dilution and the solvent quantities were selected in such away that the salt concentration of the neutralized triterpenic acid-rich solution was between 5 and 140 mM.

content in basic triterpenoid-rich solution [1]: more than 80 μg/mL
content in basic triterpenic acid-rich solution [2]: more than 100 μg/mL
Compound: CC1(C)CC[C@]2(C(=O)O)CC[C@]3(C)C(=CC[C@@H]4[C@@]5(C)CC[C@H](O)C(C)(C)[C@@H]5CC[C@]43C)[C@@H]2C1 [oleanolic acid]

— US20100104669A1, “Method for preparing an aqueous solution containing triterpenic acid, aqueous solution containing triterpenic acid, and use thereof” (priority 2008, published 2010)
